Measurements: ChEMBL document CHEMBL1136657, “Novel ether derivatives of mannopeptimycin glycopeptide antibiotic” (2003)
≈ marks a conversion by molar mass, not a printed value. Values belong to the compound of their own block, whether it stands above or below them.

Tests used:
[1] = Minimum inhibitory concentration against SCN (GC 4549) was determined; assay type: functional
[2] = test system: Staphylococcus aureus; assay: Minimum inhibitory concentration against Staphylococcus aureus (GC 1131) was determined; assay type: functional
[3] = test system: Escherichia coli; assay: Minimum inhibitory concentration against Escherichia coli (GC 4564) was determined; assay type: functional
[4] = test system: Pseudomonas aeruginosa; assay: Minimum inhibitory concentration against Pseudomonas aeruginosa (GC 2214) control was determined; assay type: functional
[5] = test system: Escherichia coli; assay: Minimum inhibitory concentration against Escherichia coli (GC 2203) was determined; assay type: functional
[6] = test system: Streptococcus pyogenes; assay: Minimum inhibitory concentration against Streptococcus pyogenes (GC 4563) was determined; assay type: functional
[7] = test system: Streptococcus agalactiae; assay: Minimum inhibitory concentration against Streptococcus agalactiae (GC4564) was determined; assay type: functional
[8] = test system: Staphylococcus aureus; assay: Minimum inhibitory concentration against Staphylococcus aureus (GC 2216) was determined; assay type: functional
[9] = test system: Enterococcus faecalis; assay: Minimum inhibitory concentration against Enterococcus faecalis (GC 2242) was determined; assay type: functional
[10] = test system: Enterococcus faecalis; assay: Minimum inhibitory concentration against Enterococcus faecalis (GC 4554) was determined; assay type: functional
[11] = test system: Streptococcus pneumoniae; assay: Minimum inhibitory concentration against Streptococcus pneumoniae (GC 4565) was determined; assay type: functional
[12] = test system: Staphylococcus aureus; assay: Minimum inhibitory concentration against Staphylococcus aureus (GC 4543) was determined; assay type: functional
[13] = test system: Enterococcus faecalis; assay: Minimum inhibitory concentration against Enterococcus faecalis (GC 4552) was determined; assay type: functional
[14] = Minimum inhibitory concentration against SCN (GC 4547) was determined; assay type: functional
[15] = test system: Streptococcus pneumoniae; assay: Minimum inhibitory concentration against Streptococcus pneumoniae (GC 1894) was determined; assay type: functional
[16] = test system: Staphylococcus aureus; assay: Minimum inhibitory concentration against Staphylococcus aureus (GC 3051) was determined; assay type: functional
[17] = test system: Enterococcus faecalis; assay: Minimum inhibitory concentration against Enterococcus faecalis (GC 4553) was determined; assay type: functional
[18] = test system: Enterococcus faecium; assay: Minimum inhibitory concentration against Enterococcus faecium (GC 4557) was determined; assay type: functional
[19] = test system: Staphylococcus aureus; assay: Minimum inhibitory concentration against Staphylococcus aureus smith; assay type: functional
[20] = test system: Bacillus cereus; assay: Minimum inhibitory concentration against Bacillus cereus (GC 4561) was determined; assay type: functional
[21] = test system: Morganella morganii; assay: Minimum inhibitory concentration against Morganella morganii (GC 4381) was determined; assay type: functional
[22] = test system: Staphylococcus aureus; assay: Minimum inhibitory concentration against Staphylococcus aureus (GC 4545) was determined; assay type: functional
[23] = test system: Enterococcus faecalis; assay: Minimum inhibitory concentration against Enterococcus faecalis (GC 4555) was determined; assay type: functional
[24] = test system: Candida albicans; assay: Minimum inhibitory concentration against Candida albicans GC 3066 was determined; assay type: functional
[25] = test system: Micrococcus luteus; assay: Minimum inhibitory concentration against Sarcina lutea (GC 4562) was determined; assay type: functional
[26] = Minimum inhibitory concentration against SCN (GC 4548) was determined; assay type: functional
[27] = Minimum inhibitory concentration against SCN (GC 6257) was determined; assay type: functional
[28] = test system: Staphylococcus aureus; assay: Minimum inhibitory concentration against Staphylococcus aureus (GC 4544) was determined; assay type: functional
[29] = test system: Staphylococcus aureus; assay: Minimum inhibitory concentration against Staphylococcus aureus (GC 3066) was determined; assay type: functional
[30] = test system: Staphylococcus haemolyticus; assay: Minimum inhibitory concentration against Staphylococcus haemolyticus (GC 4546) was determined
[31] = test system: Enterococcus avium; assay: Minimum inhibitory concentration against Enterococcus avium (GC 4558) was determined; assay type: functional
[32] = test system: Enterococcus faecium; assay: Minimum inhibitory concentration against Enterococcus faecium (GC 4556) was determined; assay type: functional
[33] = test system: Mus musculus; assay: In vivo activity against Staphylococcus aureus smith was determined after iv administration in mice; assay type: functional; conditions: Mus musculus, iv; read-out: ED50
[34] = test system: Escherichia coli; assay: Minimum inhibitory concentration against Escherichia coli (GC 4560) was determined; assay type: functional
[35] = Minimum inhibitory concentration against SCN (GC 4551) was determined; assay type: functional
[36] = test system: Staphylococcus aureus; assay: Minimum inhibitory concentration against Staphylococcus aureus (GC 4542) was determined; assay type: functional
[37] = test system: Streptococcus pneumoniae; assay: Minimum inhibitory concentration against Streptococcus pneumoniae (GC 6242) was determined; assay type: functional
[38] = test system: Enterococcus faecalis; assay: Minimum inhibitory concentration against Enterococcus faecalis (GC 3059) was determined; assay type: functional
[39] = test system: Enterococcus faecium; assay: Minimum inhibitory concentration against Enterococcus faecium (GC 2243) was determined; assay type: functional
[40] = test system: Staphylococcus aureus; assay: Minimum inhibitory concentration against Staphylococcus aureus (GC 4541 was determined; assay type: functional
[41] = test system: Enterococcus faecalis; assay: Minimum inhibitory concentration against Enterococcus faecalis (GC 2691) was determined; assay type: functional
[42] = test system: Enterococcus faecalis; assay: Minimum inhibitory concentration against Enterococcus faecalis (GC 6189) was determined; assay type: functional
[43] = test system: Staphylococcus aureus; assay: Minimum inhibitory concentration against Staphylococcus aureus was determined; assay type: functional
[44] = test system: Streptococcus; assay: Minimum inhibitory concentration against Streptococcus species. was determined; assay type: functional
[45] = test system: Enterococcus sp.; assay: Minimum inhibitory concentration against Enterococcus species. was determined; assay type: functional

MIC [1]: 0.12 µg/mL (≈ 0.0827 µM) | MIC [2]: 0.5 µg/mL (≈ 0.344 µM) | MIC [3]: 32 µg/mL (≈ 22 µM) | MIC [4]: > 64 µg/mL | MIC [5]: 32 µg/mL (≈ 22 µM) | MIC [6]: ≤ 0.06 µg/mL | MIC [7]: ≤ 0.06 µg/mL | MIC [8]: 1 µg/mL (≈ 0.689 µM) | MIC [9]: 2 µg/mL (≈ 1.38 µM) | MIC [10]: 2 µg/mL (≈ 1.38 µM) | MIC [11]: ≤ 0.06 µg/mL | MIC [12]: 0.5 µg/mL (≈ 0.344 µM) | MIC [13]: 2 µg/mL (≈ 1.38 µM) | MIC [14]: 0.5 µg/mL (≈ 0.344 µM) | MIC [15]: ≤ 0.06 µg/mL | MIC [16]: 1 µg/mL (≈ 0.689 µM) | MIC [17]: 2 µg/mL (≈ 1.38 µM) | MIC [18]: 1 µg/mL (≈ 0.689 µM) | MIC [19]: 0.5 µg/mL (≈ 0.344 µM) | MIC [20]: 1 µg/mL (≈ 0.689 µM) | MIC [21]: 64 µg/mL (≈ 44.1 µM) | MIC [22]: 0.5 µg/mL (≈ 0.344 µM) | MIC [23]: 2 µg/mL (≈ 1.38 µM) | MIC [24]: > 64 µg/mL | MIC [25]: ≤ 0.06 µg/mL | MIC [26]: 0.12 µg/mL (≈ 0.0827 µM) | MIC [27]: 0.25 µg/mL (≈ 0.172 µM) | MIC [28]: 1 µg/mL (≈ 0.689 µM) | MIC [29]: 1 µg/mL (≈ 0.689 µM) | MIC [31]: 2 µg/mL (≈ 1.38 µM) | MIC [32]: 2 µg/mL (≈ 1.38 µM) | MIC [34]: 0.25 µg/mL (≈ 0.172 µM) | MIC [35]: 0.25 µg/mL (≈ 0.172 µM) | MIC [36]: 0.25 µg/mL (≈ 0.172 µM) | MIC [37]: ≤ 0.06 µg/mL | MIC [38]: 2 µg/mL (≈ 1.38 µM) | MIC [39]: 2 µg/mL (≈ 1.38 µM) | MIC [40]: 0.5 µg/mL (≈ 0.344 µM) | MIC [41]: 2 µg/mL (≈ 1.38 µM) | MIC [42]: 1 µg/mL (≈ 0.689 µM)
Structure (SMILES): COc1ccc2cc(CO[C@H]3[C@H](O)[C@H](O)[C@@H](O[C@H]4[C@H](O)[C@H](O)[C@@H](Oc5ccc(C[C@H]6NC(=O)[C@H]([C@@H](C)c7ccccc7)NC(=O)CNC(=O)[C@H](CO)NC(=O)[C@@H]([C@@H](O)[C@@H]7CN=C(N)N7[C@H]7O[C@H](O)[C@@H](O)[C@H](O)[C@@H]7O)NC(=O)[C@H]([C@@H](O)[C@@H]7CN=C(N)N7)NC6=O)cc5)O[C@@H]4CO)O[C@@H]3CO)ccc2c1
MIC [30]: 0.25 µg/mL (≈ 0.172 µM) | ED50 [33]: 0.06 mg/kg

MIC [1]: 64 µg/mL (≈ 44.1 µM) | MIC [2]: 128 µg/mL (≈ 88.2 µM) | MIC [3]: > 128 µg/mL | MIC [4]: > 128 µg/mL | MIC [5]: > 128 µg/mL | MIC [6]: 64 µg/mL (≈ 44.1 µM) | MIC [7]: 32 µg/mL (≈ 22 µM) | MIC [8]: 128 µg/mL (≈ 88.2 µM) | MIC [9]: > 128 µg/mL | MIC [10]: > 128 µg/mL | MIC [11]: 32 µg/mL (≈ 22 µM) | MIC [12]: 64 µg/mL (≈ 44.1 µM) | MIC [13]: > 128 µg/mL | MIC [14]: 64 µg/mL (≈ 44.1 µM) | MIC [15]: 16 µg/mL (≈ 11 µM) | MIC [16]: 128 µg/mL (≈ 88.2 µM) | MIC [17]: 128 µg/mL (≈ 88.2 µM) | MIC [18]: 32 µg/mL (≈ 22 µM) | MIC [20]: 128 µg/mL (≈ 88.2 µM) | MIC [21]: > 128 µg/mL | MIC [22]: 128 µg/mL (≈ 88.2 µM) | MIC [23]: > 128 µg/mL | MIC [24]: > 64 µg/mL | MIC [25]: 16 µg/mL (≈ 11 µM) | MIC [26]: 64 µg/mL (≈ 44.1 µM) | MIC [27]: 32 µg/mL (≈ 22 µM) | MIC [28]: 128 µg/mL (≈ 88.2 µM) | MIC [29]: 128 µg/mL (≈ 88.2 µM) | MIC [31]: 128 µg/mL (≈ 88.2 µM) | MIC [32]: > 128 µg/mL | MIC [34]: 32 µg/mL (≈ 22 µM) | MIC [35]: 64 µg/mL (≈ 44.1 µM) | MIC [36]: > 128 µg/mL | MIC [37]: 32 µg/mL (≈ 22 µM) | MIC [38]: > 128 µg/mL | MIC [39]: 128 µg/mL (≈ 88.2 µM) | MIC [40]: 64 µg/mL (≈ 44.1 µM) | MIC [41]: > 128 µg/mL | MIC [42]: > 128 µg/mL
Structure (SMILES): COc1ccc2cc(CO[C@@H]3[C@@H](O[C@H]4[C@H](O)[C@H](O)[C@@H](Oc5ccc(C[C@H]6NC(=O)[C@H]([C@@H](C)c7ccccc7)NC(=O)CNC(=O)[C@H](CO)NC(=O)[C@@H]([C@@H](O)[C@@H]7CN=C(N)N7[C@H]7O[C@H](O)[C@@H](O)[C@H](O)[C@@H]7O)NC(=O)[C@H]([C@@H](O)[C@@H]7CN=C(N)N7)NC6=O)cc5)O[C@@H]4CO)O[C@H](CO)[C@@H](O)[C@@H]3O)ccc2c1
MIC [30]: 64 µg/mL (≈ 44.1 µM)

MIC [43]: > 128 µg/mL | MIC [44]: 32 µg/mL (≈ 25 µM) | MIC [45]: 128 µg/mL (≈ 99.9 µM)
Structure (SMILES): C[C@@H](c1ccccc1)[C@@H]1NC(=O)CNC(=O)[C@H](CO)NC(=O)[C@@H]([C@@H](O)[C@@H]2CN=C(N)N2[C@H]2O[C@H](O)[C@@H](O)[C@H](O)[C@@H]2O)NC(=O)[C@H]([C@@H](O)[C@@H]2CN=C(N)N2)NC(=O)[C@@H](Cc2ccc(O[C@H]3O[C@H](CO)[C@@H](O[C@H]4O[C@H](CO)[C@@H](O)[C@H](O)[C@@H]4O)[C@H](O)[C@@H]3O)cc2)NC1=O

MIC [43]: 4 µg/mL (≈ 2.93 µM) | MIC [44]: 2 µg/mL (≈ 1.46 µM) | MIC [45]: 4 µg/mL (≈ 2.93 µM)
Structure (SMILES): CC(C)CC(=O)O[C@H]1[C@H](O)[C@H](O)[C@@H](O[C@H]2[C@H](O)[C@H](O)[C@@H](Oc3ccc(C[C@H]4NC(=O)[C@H]([C@@H](C)c5ccccc5)NC(=O)CNC(=O)[C@H](CO)NC(=O)[C@@H]([C@@H](O)[C@@H]5CN=C(N)N5[C@H]5O[C@H](O)[C@@H](O)[C@H](O)[C@@H]5O)NC(=O)[C@H]([C@@H](O)[C@@H]5CN=C(N)N5)NC4=O)cc3)O[C@@H]2CO)O[C@@H]1CO
